Measurements published in patent US10898465B2, “Utility of (+) epicatechin and their analogs” (Epirium Bio Inc., priority 2016, dated 2021).
Read-outs that look alike come from different tables or passages of the source.

What was measured:
[1] = tested on: Electron Transport Chain Complex IV; assay: increase of the expression of Electron Transport Chain IV (ETC IV); format: cell-based; conditions: for EC50: increase of expression of ETC IV, read-out: EC50 on mitochondrial ETC complexes: Electron Transport Chain Complex IV
From the text: The present invention discloses a remarkable range of biological activity across the two enantiomers of epicatechin, something heretofore not described for flavonoids as a class. The enantiomer of (−)-epicatechin is (+)-epicatechin. […]

[2] = Effect on triglyceride level in animals on High Fat Diet; format: in vivo, mice; conditions: 15 days
Experimental: Animals were placed on High Fat Diet (HFD) until they gain more than 20% of Body weight compared with animals on standard chow and reached glycemia levels ≥200 mg/dL (usually 4-6 weeks). Animals were randomly assigned to Control (obese group) receiving vehicle only (by gavage): n=12; (+)-Epicatechin—orally by gavage: n=10: (−)-Epicatechin—orally by gavage: n=10.
All animals were treated for 15 days and continued under HFD. The results are presented at FIG. 3.

[3] = Oral pharmacokinetic study in mice, plasma LC-MS/MS; format: in vivo; conditions: 10 mpk, female Balb C mice
Experimental: Female Balb C mice 4 per group after overnight fasting were dosed orally (via gavage) with compound 1 in 5% NMP in normal saline (10 ml/kg). Blood was collected by serial bleeding at 0.16 hr, 0.5 hr, 1 hr, 2 hr, 4 hr, 6 hr, 8 hr in heparinized tubes. Blood samples were centrifuged at 10,000 rpm for 5 min. at 4° C. to obtain the plasma, which were aspirated into separate labeled tubes and stored at −80° C. 400 ng/ml of standard in acetonitrile was used as the drug extraction solvent for extracting drug from plasma. Extraction solvent was added to plasma was vortexed and shaken on shaker for 10 minutes, centrifuged at 10,000 rpm for 10 minutes at 4° C. Supernatant was kept for analysis.
Acetonitrile and plasma calibration curves were generated and percentage of drug recovery from plasma determined. Quantitative analysis was done by liquid chromatography tandem mass spectrometer (API3200 LC-MS/MS). Cmax, Tmax, AUC and t1/2 were calculated using Graph Pad PRISM version 5.04 and the results were depicted in Table 3.

[4] = tested on: AMP kinase; assay: cell-based fluorescent ELISA of AMP kinase phosphorylation status in cultured cells; conditions: AMP kinase phosphorylation (pAMPK) in cultured cells
Experimental: The compounds of the present invention were tested for their activity on AMP kinase. The activity on AMP kinase was evaluated by quantitative fluorescent immunoenzymatic assay of AMP kinase phosphorylation status in cultured cells. The 5-AMP-activated protein kinase (AMP kinase) is a key sensor of intracellular energy balance. AMP kinase is activated in response to an increase in the AMP/ATP ratio which can be caused by a number of factors such as muscle contraction, starvation, or hypoxia. AMP kinase is a heterotrimeric protein complex comprising of (63 kDa),—(38 kDa) and—•(38 kDa) subunits. For each subunit, isoforms have been identified (1, 2, 1, 2, 1, 2, 3) which theoretically allow the formation of 12 different proteins. The -subunit contains a serine/threonine kinase domain and the regulatory subunits contain binding sites for AMP and ATP (-subunit) and for glycogen (-subunit). AMP kinase is activated by phosphorylation on Thr-172 within the catalytic domain. AMP binding results in a 2 to 5-fold increase in AMP kinase activity compared to the basal level. […]
BioAssay Systems' cell-based ELISA measure phosphorylated AMP kinase in whole cells and normalizes the signal to the total protein content. […] AMP kinase phosphorylation (pAMPK) is measured using a fluorescent ELISA followed by total protein measurement in each well.

EC50 [1] [µM]	AUC [3] [µM·h]	Elimination t½ [3] [h]	AUC ([3]; mouse, 10 mg/kg, read-out: AUC) [µM·h]	half-life ([3]; mouse, 10 mg/kg, read-out: Elimination t½ (converted)) [h]	Compound	fold more potent than (−)-epicatechin on increase of the expression of ETC IV ([1]; (+)-epicatechin versus (−)-epicatechin)	improvement over (−)-epicatechin in dose giving the same triglyceride reduction ([2]; 0.003 vs 0.1 mg/Kg/day, oral) [fold]	reduction in triglyceride levels ([2]; (+)-epicatechin 0.003 mg/Kg/day vs (−)-epicatechin 0.1 mg/Kg/day, orally by gavage, FIG. 3 triglycerides content of livers)	concentration at which AMPK activity is exhibited [4] [nM]
0.1	0.683	2.13	–	–	Oc1cc(O)c2c(c1)O[C@@H](c1ccc(O)c(O)c1)[C@@H](O)C2 [(+)-Epicatechin]	approximately 400 fold	> 30	shows the same reduction in triglyceride levels as (−)-epicatechin	–
40	–	–	–	–	Oc1cc(O)c2c(c1)O[C@H](c1ccc(O)c(O)c1)[C@H](O)C2 [(−)-Epicatechin, reference compound]	–	–	–	–
–	–	–	2.8	4.5	CCCCCCCC(=O)Oc1cc(O)cc2c1C[C@H](O)[C@H](c1ccc(O)c(O)c1)O2 [Compound 1001, (2S,3S)-2-(3,4-dihydroxyphenyl)-3,7-dihydroxychroman-5-yl octanoate]	–	–	–	1
